Measurements as given in patent US11492325B2, “Compounds as inhibitors of sodium channels” (Human BioMolecular Research Institute, priority 2016, dated 2022).
Like-named read-outs stand apart in the source and are kept apart here. One block for each compound: values may come before it.

What was measured:
[1] = Metabolism in human hepatic S9
Procedure: (§1) A typical incubation contained rat, mouse, dog or human liver microsomes (0.4-0.5 mg of protein), 100 mM potassium phosphate buffer (pH7.4), 50 μM test compound, an NADPH-generating system consisting of 0.5 mM NADP^+, 0.5 mM glucose-6-phosphate, 1 IU/mL glucose-6-phosphate dehydrogenase, 1 mg/mL diethylenetriaminepentaaceticacid (DETAPAC), and 3 mM MgCl2 in a final incubation volume of 0.25 mL. […] After centrifugation at 3000 rpm for 5 min, the organic fraction was collected, the solvent was removed with a stream of argon and the residue was reconstituted in 125 μL of MeOH and 125 μL H2O, mixed thoroughly, centrifuged at 13,000 rpm for 5 min and analyzed by high performance liquid chromatography. Samples were run on a Hitachi D-7000 HPLC system using a L-7100 analytical pump, L-7400 UV-Visible variable wavelength detector, and L-7600 automatic sample injector. […] Disappearance of the analyte was monitored over time. A plot of the area under the curve for the normalized analyte versus time afforded the half-life values and kapp.
Microsomes contain CYPs and FMO metabolic enzymes. S9 contains soluble enzymes (i.e., aldehyde oxidase, MAO, etc.).

[2] = Solubility (water; 10:30:60% DMSO:PEG400:water vehicle); format: physicochemical
[3] = target: Na+ channel currents in LQT3 patient-derived cardiomyocytes (Homo sapiens, UniProt Q14524); test: Whole cell patch clamp of Na+ currents (INaP, INaL) in hIPSC LQT3 patient-derived cardiomyocytes; format: cell-based
Na+ channel currents in LQT3 patient-derived cardiomyocytes, sequence (Q14524 whole entry F1473C, form open): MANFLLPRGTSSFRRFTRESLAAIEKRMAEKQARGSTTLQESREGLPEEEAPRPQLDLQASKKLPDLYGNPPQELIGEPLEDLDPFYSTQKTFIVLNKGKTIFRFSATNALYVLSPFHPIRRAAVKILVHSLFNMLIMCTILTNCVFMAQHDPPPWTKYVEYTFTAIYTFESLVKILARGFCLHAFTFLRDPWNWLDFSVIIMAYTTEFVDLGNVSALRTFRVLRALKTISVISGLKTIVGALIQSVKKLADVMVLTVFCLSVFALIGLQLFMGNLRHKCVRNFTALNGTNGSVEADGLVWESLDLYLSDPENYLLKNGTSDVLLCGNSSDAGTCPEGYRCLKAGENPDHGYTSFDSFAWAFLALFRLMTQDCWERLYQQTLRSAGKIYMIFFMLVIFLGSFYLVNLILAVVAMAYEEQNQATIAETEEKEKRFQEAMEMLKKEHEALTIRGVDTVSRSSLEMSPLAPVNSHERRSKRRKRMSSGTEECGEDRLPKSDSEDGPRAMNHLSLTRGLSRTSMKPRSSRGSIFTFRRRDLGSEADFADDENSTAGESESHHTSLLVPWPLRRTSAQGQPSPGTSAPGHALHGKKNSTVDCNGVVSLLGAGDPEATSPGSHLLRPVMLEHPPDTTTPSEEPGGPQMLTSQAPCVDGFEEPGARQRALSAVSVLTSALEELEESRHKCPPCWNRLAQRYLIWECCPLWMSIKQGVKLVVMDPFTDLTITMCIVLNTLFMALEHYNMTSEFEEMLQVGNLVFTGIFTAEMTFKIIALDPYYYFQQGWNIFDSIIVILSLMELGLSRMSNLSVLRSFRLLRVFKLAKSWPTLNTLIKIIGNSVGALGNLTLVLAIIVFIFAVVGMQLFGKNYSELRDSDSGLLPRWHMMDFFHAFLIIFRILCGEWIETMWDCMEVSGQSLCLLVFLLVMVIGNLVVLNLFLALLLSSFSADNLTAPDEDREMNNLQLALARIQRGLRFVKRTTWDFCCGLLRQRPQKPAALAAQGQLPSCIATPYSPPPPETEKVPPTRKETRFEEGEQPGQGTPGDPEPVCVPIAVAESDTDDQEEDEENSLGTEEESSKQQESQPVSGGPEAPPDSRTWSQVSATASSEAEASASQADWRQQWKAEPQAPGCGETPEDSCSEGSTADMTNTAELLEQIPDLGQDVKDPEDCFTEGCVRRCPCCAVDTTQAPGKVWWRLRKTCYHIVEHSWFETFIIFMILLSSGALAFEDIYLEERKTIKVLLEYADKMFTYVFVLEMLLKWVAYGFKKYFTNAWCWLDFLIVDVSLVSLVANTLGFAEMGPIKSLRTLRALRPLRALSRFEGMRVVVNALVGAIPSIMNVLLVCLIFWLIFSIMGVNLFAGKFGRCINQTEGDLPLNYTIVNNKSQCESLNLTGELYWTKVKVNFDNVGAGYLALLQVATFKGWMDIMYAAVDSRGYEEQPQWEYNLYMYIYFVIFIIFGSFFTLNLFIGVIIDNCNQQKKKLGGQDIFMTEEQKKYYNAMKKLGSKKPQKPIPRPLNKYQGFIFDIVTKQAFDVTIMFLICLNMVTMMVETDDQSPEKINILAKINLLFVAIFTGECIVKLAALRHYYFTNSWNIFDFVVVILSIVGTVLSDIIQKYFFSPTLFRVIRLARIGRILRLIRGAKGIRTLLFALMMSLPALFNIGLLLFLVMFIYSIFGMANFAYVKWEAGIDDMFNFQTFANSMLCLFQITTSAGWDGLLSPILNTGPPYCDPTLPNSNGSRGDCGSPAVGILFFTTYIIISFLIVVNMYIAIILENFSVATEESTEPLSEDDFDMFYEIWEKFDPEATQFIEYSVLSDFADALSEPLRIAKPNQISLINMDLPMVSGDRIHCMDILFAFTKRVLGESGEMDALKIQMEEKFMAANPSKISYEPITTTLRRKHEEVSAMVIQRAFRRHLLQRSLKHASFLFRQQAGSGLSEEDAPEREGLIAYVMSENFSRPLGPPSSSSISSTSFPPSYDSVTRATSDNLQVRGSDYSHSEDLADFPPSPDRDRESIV
Procedure: Patch clamp recordings from hIPSC LQT3 patient-derived cardiomyocytes for Na+ channel currents were recorded in response to computed voltage waveforms that simulated adult ventricular action potentials.
The basis for LQT3 is a mutation in SCN5a that encodes the voltage-gated Na channel responsible for cardiac action potential. The Na current (INa) has peak and late components: the peak component initiates the action potential but as voltage rises, the channel normally inactivates. […] The LQT3 mutation impairs inactivation. The late component is then enlarged, resulting in action potential prolongation. […] Whole cell patch clamp electrophysiology experiments in LQTS3 cardiomyocytes helped determine the functional activity of drug candidates for inhibition of the late sodium current in the cells. Thus, we tested compounds for Peak (INaP) and Late (INaL) components. They were recorded in a “whole-cell” voltage-clamp mode configuration in response to voltage stimulation steps from −80 mV to +40 mV and their IC50 values determined (Table 1).

[4] = Chemical stability in PBS buffer at pH 7.4 or 3.0, 37° C.; format: physicochemical; conditions: 1% Ethanol
Procedure: A typical incubation contained 100 μM of the test compound prepared in PBS buffer (pH 7.4 or 3.0, 50 mM) with 1% Ethanol. The test compounds were incubated at 37° C. An aliquot from incubations was taken at various times and injected onto an RP-HPLC system as described above. Disappearance of the analyte was monitored over time.

[5] = Metabolic stability in human liver microsomes; format: in vitro ADME; conditions: for half-life at 50 μM: human, liver microsomes, pH 7.4, liver microsomes + NADPH, species (human), read-out: metabolic stability in liver microsomes T1/2
Procedure: as §1

[6] = tested on: normal human induced pluripotent stem cell (hiPSC) cardiomyocyte; test: cells; conditions: read-out: WT-EC50 (μM) Prolongation
[7] = tested on: cardiomyocytes derived from hiPSCs from a LQTS3 patient; conditions: for LQT-EC50 (μM) Shortening: AP shortening; for LQT-3 shortening (in words): LQT-3 cells
[8] = tested on: normal human induced pluripotent stem cell (hiPSC) cardiomyocyte; conditions: for WT-Cessation Dose (μM): WT cardiomyocytes, cessation of beating
[9] = tested on: cardiomyocytes derived from hiPSCs from a LQTS3 patient; test: cells; conditions: Homo sapiens, Cardiomyocyte; for IC50: read-out: LQT-IC50 (uM)-Shortening
[10] = target: hERG potassium channel (IKr) (Homo sapiens, UniProt Q12809); test: Automated patch clamp, hERG (IKr) expressed in CHO cells; conditions: for IC50: hERG (IKr) IC50, CHO cells
hERG potassium channel (IKr), sequence (Q12809 whole entry): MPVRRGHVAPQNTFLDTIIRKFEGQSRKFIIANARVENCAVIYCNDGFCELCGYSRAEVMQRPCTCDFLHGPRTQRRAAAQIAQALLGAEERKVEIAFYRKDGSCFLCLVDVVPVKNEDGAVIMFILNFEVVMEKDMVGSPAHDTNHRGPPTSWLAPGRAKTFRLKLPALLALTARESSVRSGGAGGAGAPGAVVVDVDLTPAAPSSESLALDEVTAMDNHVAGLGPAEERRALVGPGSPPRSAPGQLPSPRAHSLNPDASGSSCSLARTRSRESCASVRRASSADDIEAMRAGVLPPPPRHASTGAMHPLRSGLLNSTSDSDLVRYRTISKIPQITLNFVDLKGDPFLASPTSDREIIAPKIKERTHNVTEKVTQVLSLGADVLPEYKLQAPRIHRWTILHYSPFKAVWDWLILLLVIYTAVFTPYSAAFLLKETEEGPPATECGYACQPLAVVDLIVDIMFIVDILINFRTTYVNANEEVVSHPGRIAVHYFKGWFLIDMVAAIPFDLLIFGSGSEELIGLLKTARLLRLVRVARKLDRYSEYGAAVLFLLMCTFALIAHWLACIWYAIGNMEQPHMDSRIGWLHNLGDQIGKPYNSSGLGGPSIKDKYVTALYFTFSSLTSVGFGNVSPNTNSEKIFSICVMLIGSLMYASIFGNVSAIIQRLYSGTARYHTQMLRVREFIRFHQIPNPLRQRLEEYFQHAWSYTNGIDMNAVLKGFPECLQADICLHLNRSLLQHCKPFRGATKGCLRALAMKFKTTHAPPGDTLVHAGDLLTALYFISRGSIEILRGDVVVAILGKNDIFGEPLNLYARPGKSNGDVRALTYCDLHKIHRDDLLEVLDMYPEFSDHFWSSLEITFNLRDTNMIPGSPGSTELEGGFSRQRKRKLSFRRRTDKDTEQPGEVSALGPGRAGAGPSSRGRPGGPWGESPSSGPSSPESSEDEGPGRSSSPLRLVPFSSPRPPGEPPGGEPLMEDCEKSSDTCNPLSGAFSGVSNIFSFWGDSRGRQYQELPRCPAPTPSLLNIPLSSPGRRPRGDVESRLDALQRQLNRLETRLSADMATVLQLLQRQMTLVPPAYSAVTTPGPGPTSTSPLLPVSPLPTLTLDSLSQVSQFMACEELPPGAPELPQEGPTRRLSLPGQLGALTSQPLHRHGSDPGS

[11] = target: Nav1.5 sodium channel, peak current (INaP) (Homo sapiens, UniProt Q14524, form not given); test: in vitro; conditions: Peak Na+ (INaP) IC50
Procedure: (§2) This provided data to investigate the physiology and action of target compounds on individual ion channels. The assay used standardized protocols for culturing and conducting conventional whole cell recording that have been previously developed for both current and voltage-clamp to characterize action potentials using transfected cells. Briefly, the Nav1.5 sodium channel was transfected into HEK293 cells. […] Briefly, cells were plated on 0.1% gelatin-coated 35-mm plastic Petri dishes. […] Data was reported as IC50 values±STD (Table 1).

[12] = target: Nav1.5 sodium channel transfected into HEK293 cells (Homo sapiens, UniProt Q14524); test: Patch clamp electrophysiology, peak (INaP) and late (INaL) sodium current in transfected cells
Procedure: as §2

[13] = tested on: Male BALBc mice; conditions: mouse, in vivo, ip, 200 mg/kg
Source text: Male BALBc mice (20-22 g) were used throughout these studies. The animals were maintained in a temperature-controlled room with 12-hr periods of light and darkness and had continuous access to water and animal food. […] Groups contained 2-4 animals.

[14] = whole-cell voltage clamp, steps -80 mV to +40 mV, table title says transfected CHO cells, read-out: IC50 for INaL
[15] = whole-cell voltage clamp, steps -80 mV to +40 mV, table title says transfected CHO cells, read-out: IC50 for INaP
[16] = pH 7.4, 100 μM in PBS, read-out: Half-Life @ pH 7.4 and 37° C.
[17] = pH 3, 100 μM in PBS, read-out: Half-Life @ pH 3.0 and 37° C.
[18] = read-out: LQT-EC50 (μM) Shortening, LQT-3 cardiomyocytes, AP shortening
[19] = 'No AP' wraps to 'No AP shortening'

- metabolism in human liver S-9 judged by HPLC [1]: detectably metabolized
- solubility (in words) [2]: good solubility
- IC50 ([3]; LQT3 patient-derived cardiomyocytes, read-out: NaI channel Late (INaL) IC50): 1.74 µM
- IC50 [3, 14]: 1.7 µM
- IC50 [3, 15]: 102 µM
- half-life at 100 μM [4, 16]: > 30 days
- half-life at 50 μM [5]: > 0.0417 days
SMILES: Cc1ccccc1OCC(N)c1ccccc1 (stereo not drawn) [Compound 25, 1-phenyl-2-(o-tolyloxy)ethanamine]

SMILES: Cc1ccncc1OCC(N)c1ccccc1 (stereo not drawn) [Compound 112]
- EC50 [6]: 19.4 µM
- LQT-Fold Shortening ([7]; LQT-3 cardiomyocytes): Does Not Shorten
- LQT-Shortening Dose (μM) ([7]; LQT-3 cardiomyocytes): Does Not Shorten
- LQT-EC50 (μM) Shortening ([7]; LQT-3 cardiomyocytes): Does Not Shorten
- WT-Cessation Dose (μM) [8]: No cessation of beating

SMILES: Cc1cc(C)c(OCC(N)c2ccccc2)cn1 (stereo not drawn) [Compound 120]
- EC50 [6]: 7.33 µM
- LQT-Fold Shortening ([7]; LQT-3 cardiomyocytes): Does Not Shorten
- LQT-Shortening Dose (μM) ([7]; LQT-3 cardiomyocytes): Does Not Shorten
- LQT-EC50 (μM) Shortening ([7]; LQT-3 cardiomyocytes): Does Not Shorten
- WT-Cessation Dose (μM) [8]: No cessation of beating

- Cessation of Beating ([8]; normal hiPSC cardiomyocytes): None
- WT-EAD Dose ([8]; normal hiPSC cardiomyocytes): 133 µM
- WT-Cessation Dose ([8]; pyridyl derivatives): No cessation of beatimg
SMILES: Cc1cccnc1OCC(N)c1ccccc1 (stereo not drawn) [Compound 94, 2-((3-methylpyridin-2-yl)oxy)-1-phenylethan-1-amine]
- EC50 [6]: 18.5 µM
- EC50 ([9]; read-out: LQT-EC50 (μM) Shortening, pyridyl derivatives): 12.8 µM

SMILES: Cc1cncc(OCC(N)c2ccccc2)c1 (stereo not drawn) [Compound 113]
- EC50 [6]: 7.24 µM
- LQT-Fold Shortening ([7]; LQT-3 cardiomyocytes): Does Not Shorten
- LQT-Shortening Dose (μM) ([7]; LQT-3 cardiomyocytes): Does Not Shorten
- LQT-EC50 (μM) Shortening ([7]; LQT-3 cardiomyocytes): Does Not Shorten

SMILES: Cc1ccnc(C)c1OCC(N)c1ccccc1 (stereo not drawn) [Compound 118]
- EC50 [6]: 8.22 µM
- LQT-Fold Shortening ([7]; LQT-3 cardiomyocytes): Does Not Shorten
- LQT-Shortening Dose (μM) ([7]; LQT-3 cardiomyocytes): Does Not Shorten
- LQT-EC50 (μM) Shortening ([7]; LQT-3 cardiomyocytes): Does Not Shorten
- WT-Cessation Dose (μM) [8]: No cessation of beating

- half-life at 100 μM [4, 17]: > 15 days
SMILES: Cc1ccccc1OCC(N)c1ccccc1 (stereo not drawn) [drawing 311]

SMILES: Cc1cc(C)cc(OCC(N)c2ccccc2)c1 (stereo not drawn) [drawing 309]
- half-life at 100 μM [4, 17]: > 30 days
- half-life at 100 μM [4, 16]: > 30 days

SMILES: COCCNC(COc1cccnc1)c1ccccc1 (stereo not drawn) [Compound 121]
- EC50 [6]: 25.4 µM
- LQT-Fold Shortening ([7]; LQT-3 cardiomyocytes): 1.144
- LQT-3 shortening (in words) [7]: moderate shortening
- EC50 [9, 18]: 2.58 µM
- WT-Cessation Dose (μM) [8]: No cessation of beating

SMILES: Cl.NC(COc1cc(C(F)(F)F)cc(C(F)(F)F)c1)c1ccccc1 (stereo not drawn) [Compound 78, 2-(3,5-bis(trifluoromethyl)phenoxy)-1-phenylethan-1-amine]
- IC50 ([10]; Example 2): 7.2 µM
- DKr/NaL ([10]; ratio, Example 2): 7.0
- DNaP/Kr ([10]; ratio, Example 2): 2.77
- LQT-Fold Shortening [7, 19]: 1.208
- LQT-Shortening Dose [7, 19]: 22 µM
- LQT-Cessation Dose ([7]; LQT3 cardiomyocytes): 66 µM
- LQT-Fold Shortening ([7]; LQT3 cardiomyocytes): 1.208
- LQT-Cess. Dose ([7]; deuterated vs non-deuterated): 66 µM
- EC50 ([9]; read-out: LQT-EC50 (μM)-Shortening): 23.1 µM
- IC50 [9]: 23.1 µM
- solubility (in words) [2]: good solubility
- half-life at 100 μM [4, 16]: > 30 days
- WT-Prolong. Dose ([8]; 'No AP' wraps to 'No AP Prolong.'): No AP
- WT-Fold Prolongation ([8]; APD, normal hiPSC cardiomyocytes): None
- WT-Cess. Dose ([8]; deuterated vs non-deuterated): 133 µM
- WT-EC50 (μM)-Prolong. ([8]; deuterated vs non-deuterated, 'No AP' wraps to 'No AP prolongation'): No AP
- Cessation of Beating ([8]; normal hiPSC cardiomyocytes): 133 µM
- WT-Prolongation Dose ([8]; normal hiPSC cardiomyocytes): None
- half-life at 50 μM [5]: > 0.0417 days
- IC50 [11]: 20 µM
- DNap/NaL ([12]; ratio peak IC50/late IC50): 19.4
- DNap/NaL ([12]; ratio peak/late IC50, Example 2): 19.4

SMILES: COCCNC(COc1cccc(C)c1C)c1ccccc1 (racemic) [Compound 36, 2-(2,3-dimethylphenoxy)-N-methoxy-ethyl-1-phenylethanamine]
- metabolism in human liver S-9 judged by HPLC [1]: detectably metabolized
- IC50 [10]: 27.6 µM
- IC50 ([10]; Example 2): 27.6 µM
- DKr/NaL ([10]; ratio hERG IC50/late Na IC50): 36.9
- DNaP/Kr ([10]; ratio peak Na IC50/hERG IC50): 0.9
- DKr/NaL ([10]; ratio, Example 2): 36.9
- DNaP/Kr ([10]; ratio, Example 2): 0.93
- LQT-Cessation Dose ([7]; LQT3 cardiomyocytes): 200 µM
- LQT-Fold Shortening ([7]; LQT3 cardiomyocytes): 1.508
- behavioral/toxic effects at 200 mg/kg [13]: slight lethargy
- IC50 [9]: 5.73 µM
- solubility (in words) [2]: good solubility
- IC50 [3, 14]: 0.38 µM
- IC50 [3, 15]: 51.8 µM
- Cessation of Beating ([8]; normal hiPSC cardiomyocytes): None
- metabolism in human liver microsomes judged by HPLC [5]: metabolized
- IC50 [11]: 25.8 µM
- IC50 [12]: 0.747 µM

SMILES: NC(COc1cnccc1C(F)(F)F)c1ccccc1 (stereo not drawn) [Compound 115]
- EC50 [6]: 25.7 µM
- LQT-Fold Shortening ([7]; LQT-3 cardiomyocytes): Does Not Shorten
- LQT-Shortening Dose (μM) ([7]; LQT-3 cardiomyocytes): Does Not Shorten
- LQT-EC50 (μM) Shortening ([7]; LQT-3 cardiomyocytes): Does Not Shorten
- WT-Cessation Dose (μM) [8]: No cessation of beating

SMILES: COCCNC(COc1ccncc1)c1ccccc1 (stereo not drawn) [Compound 127]
- EC50 [6]: 97.7 µM
- LQT-Fold Shortening ([7]; LQT-3 cardiomyocytes): Does Not Shorten
- LQT-Shortening Dose (μM) ([7]; LQT-3 cardiomyocytes): Does Not Shorten
- LQT-EC50 (μM) Shortening ([7]; LQT-3 cardiomyocytes): Does Not Shorten
- WT-Cessation Dose (μM) [8]: No cessation of beating

- cessation of beating (in words) ([7]; at the concentrations examined, cells not specified): did not induce cessation of beating
SMILES: NC(COc1ccccc1C(F)(F)F)c1ccc2ccccc2c1 (stereo not drawn) [Compound 134]
- EC50 [6]: 24.4 µM
- LQT-Fold Shortening ([7]; LQT-3 cardiomyocytes): 1.515
- LQT-Cessation Dose (μM) ([7]; LQT-3 cardiomyocytes, cessation of beating): No cessation of beating
- LQT-3 shortening (in words) [7]: highly potent
- EC50 [9, 18]: 1.79 µM
- prolongation effects in wild type cells ([8]; wild type cells): some prolongation effects
